Structures are written as SMILES. Where a name gives a salt, the structure may show the parent alone. A value given as a limit tells only on which side of the number the result lay.

For `CN1C2CCC1CC(N(C)S(=O)(=O)c1ccc(Nc3nccc(Nc4ccc(F)cc4)n3)cc1)C2` (centres unmarked), the melting point is 184.5 °C. For `CCOP(=O)(CCN1CCC(NS(=O)(=O)c2ccc(Nc3nccc(Nc4ccc(F)c(F)c4)n3)cc2)CC1)OCC` the value was 133 °C; for `CCOP(=O)(CN1CCC(NS(=O)(=O)c2ccc(Nc3nccc(Nc4ccc(F)c(F)c4)n3)cc2)CC1)OCC`, 137.8 °C; for `CCOP(=O)(CCN1CCC(N(C)S(=O)(=O)c2ccc(Nc3nccc(Nc4ccc(F)c(F)c4)n3)cc2)CC1)OCC`, 93 to 96 °C.

Regarding `CCOP(=O)(CCN1CCC(N(CCN)S(=O)(=O)c2ccc(Nc3nccc(Nc4ccc(F)c(F)c4)n3)cc2)CC1)OCC`, the melting point fell in the range of 88 to 90 °C. Molecule `CCOP(=O)(CCN1CCC(N(CCCN)S(=O)(=O)c2ccc(Nc3nccc(Nc4ccc(F)c(F)c4)n3)cc2)CC1)OCC` displayed a melting point of 94 to 96 °C. In the case of `CCOP(=O)(CCN1CCC(N(C)S(=O)(=O)c2ccc(Nc3nccc(Nc4ccc(F)cc4)n3)cc2)CC1)OCC`, the melting point was 95 to 100 °C. Consider `CCOP(=O)(CCN1CCC(N(CCN)S(=O)(=O)c2ccc(Nc3nccc(Nc4ccc(F)cc4)n3)cc2)CC1)OCC`, for which the melting point amounted to 90 °C. To `CCOP(=O)(CCCN1CCC(NS(=O)(=O)c2ccc(Nc3nccc(Nc4ccc(F)cc4)n3)cc2)CC1)OCC` belongs 110 °C; to `CCOP(=O)(CCN1CCC(N(CCCN)S(=O)(=O)c2ccc(Nc3nccc(Nc4ccc(F)cc4)n3)cc2)CC1)OCC`, 125 to 130 °C; to `CCOP(=O)(CCN1CCC(N(CCN2CCCC2)S(=O)(=O)c2ccc(Nc3nccc(Nc4ccc(F)cc4)n3)cc2)CC1)OCC`, 85 °C. For `CC(C)(O)CNCCN(C1CCN(Cc2ccccc2)CC1)S(=O)(=O)c1ccc(Nc2nccc(Nc3ccc(F)cc3)n2)cc1` (as salt: hydrochloride) the value was 200 °C. Turning to `CN(C1CCNCC1)S(=O)(=O)c1ccc(Nc2nccc(Nc3ccc(F)c(F)c3)n2)cc1` (as salt: hydrochloride), the melting point came to 275 °C. On to `Cc1cc(Nc2ccnc(Nc3ccc(S(=O)(=O)N(C)C4CCNCC4)cc3)n2)ccc1F` (as salt: hydrochloride), for which the melting point was 215 to 220 °C.

As for `CN1CCC(N(CCN)S(=O)(=O)c2ccc(Nc3nccc(Nc4ccc(F)cc4)n3)cc2)CC1` (as salt: hydrochloride), the melting point was determined as 225 °C.

Regarding `CN(C)CCN(C1CCNCC1)S(=O)(=O)c1ccc(Nc2nccc(Nc3ccc(F)cc3)n2)cc1` (as salt: hydrochloride), the melting point came out at 220 °C. Regarding `O=S(=O)(c1ccc(Nc2nccc(Nc3ccc(F)cc3)n2)cc1)N(CCN1CCCC1)C1CCNCC1` (as salt: hydrochloride), the melting point stood at 200 °C. Consider `CCOP(=O)(CCN1CCC(N(CC2CCCN2)S(=O)(=O)c2ccc(Nc3nccc(Nc4ccc(F)cc4)n3)cc2)CC1)OCC` (centres unmarked) (as salt: hydrochloride), for which the melting point is 185 °C. To `NCCN(C1CCN(Cc2ccccc2)CC1)S(=O)(=O)c1ccc(Nc2nccc(Nc3ccc(F)cc3)n2)cc1` (as salt: hydrochloride) belongs 230 to 232 °C; to `NCCN(C1CNC1)S(=O)(=O)c1ccc(Nc2nccc(Nc3ccc(F)cc3)n2)cc1` (as salt: hydrochloride), more than 220 °C. Regarding `CCNCCN(C1CCNCC1)S(=O)(=O)c1ccc(Nc2nccc(Nc3ccc(F)cc3)n2)cc1` (as salt: hydrochloride), the melting point was 250 °C. `NCCN(C1CCOCC1)S(=O)(=O)c1ccc(Nc2nccc(Nc3ccc(F)cc3)n2)cc1` (as salt: hydrochloride) showed a melting point of 200 °C.

Consider `Cc1cc(Nc2ccnc(Nc3ccc(S(=O)(=O)N(CCN)C4CNC4)cc3)n2)ccc1F` (as salt: hydrochloride), for which the melting point was 205 °C. The molecule `Cc1cc(Nc2ccnc(Nc3ccc(S(=O)(=O)N(CCN)C4CCN(CC(F)(F)F)CC4)cc3)n2)ccc1F` (as salt: hydrochloride) came in with a melting point of 225 °C. With `CN(C1CCNCC1)S(=O)(=O)c1ccc(Nc2nccc(Nc3ccc(F)cc3)n2)cc1` (as salt: hydrochloride) [Example 8, 4-[4-(4-Fluorophenylamino)pyrimidin-2-ylamino]-N-methyl-N-piperidin-4-yl-benzenesulfonamide], the melting point lay in the range of 205 to 210 °C. For `NCCN(C1CCNCC1)S(=O)(=O)c1ccc(Nc2nccc(Nc3ccc(F)cc3)n2)cc1` (as salt: hydrochloride) [Example 44, N-(2-Aminoethyl)-4-[4-(4-fluorophenyl-amino)pyrimidin-2-ylamino]-N-piperidin-4-ylbenzene-sulfonamide hydrochloride] the value was 270 °C. In turn, `CNCCN(C1CCN(C)CC1)S(=O)(=O)c1ccc(Nc2nccc(Nc3ccc(F)cc3)n2)cc1` (as salt: hydrochloride) [Example 46, 4-[4-(4-Fluorophenylamino)pyrimidin-2-yl-amino]-N-(2-methylaminoethyl)-N-(1-methylpiperidin-4-yl)benzenesulfonamide hydrochloride] returned a melting point of 220 °C. For `NCCCN(C1CCNCC1)S(=O)(=O)c1ccc(Nc2nccc(Nc3ccc(F)cc3)n2)cc1` (as salt: hydrochloride) [Example 92, N-(3-Aminopropyl)-4-({4-[(4-fluorophenyl)-amino]pyrimidin-2-yl}amino)-N-piperidin-4-ylbenzene-sulfonamide hydrochloride], the melting point is 245 to 247 °C. On to `Cc1cc(Nc2ccnc(Nc3ccc(S(=O)(=O)N(CCN)C4CCN(C)CC4)cc3)n2)ccc1F` (as salt: hydrochloride) [Example 95, N-(2-Aminoethyl)-4-({4-[(4-fluoro-3-methyl-phenyl)amino]pyrimidin-2-yl}amino)-N-(1-methylpiperidin-4-yl)benzenesulfonamide hydrochloride], for which the melting point was determined as 220 °C.

In turn, `O=S(=O)(c1ccc(Nc2nccc(Nc3ccc(F)cc3)n2)cc1)N(CCN1CCCC1)C1CNC1` (as salt: hydrochloride) [Example 96, N-Azetidin-3-yl-4-({4-[(4-fluorophenyl)-amino]pyrimidin-2-yl}amino)-N-(2-pyrrolidin-1-ylethyl)-benzenesulfonamide hydrochloride] yielded a melting point of 215 °C. `Cc1cc(Nc2ccnc(Nc3ccc(S(=O)(=O)N(CCN4CCCC4)C4CNC4)cc3)n2)ccc1F` (as salt: hydrochloride) [Example 97, N-Azetidin-3-yl-4-({4-[(4-fluoro-3-methyl-phenyl)amino]pyrimidin-2-yl}amino)-N-(2-pyrrolidin-1-ylethyl)benzenesulfonamide hydrochloride] came in with a melting point of 231 to 235 °C. On to `NCCN(C1CCN(CC(F)(F)F)CC1)S(=O)(=O)c1ccc(Nc2nccc(Nc3ccc(F)cc3)n2)cc1` (as salt: hydrochloride) [Example 100, N-(2-Aminoethyl)-4-({4-[(4-fluorophenyl)-amino]pyrimidin-2-yl}amino)-N-[1-(2,2,2-trifluoro-ethyl)piperidin-4-yl]benzenesulfonamide hydrochloride], for which the melting point was 240 to 245 °C. Take `CN1CCC(N(C[C@@H]2CCCN2)S(=O)(=O)c2ccc(Nc3nccc(Nc4ccc(F)cc4)n3)cc2)CC1` (as salt: hydrochloride) [Example 123, 4-({4-[(4-Fluorophenyl)amino]pyrimidin-2-yl}amino)-N-(1-methylpiperidin-4-yl)-N-[(2S)-pyrrolidin-2-ylmethyl]benzenesulfonamide]: the melting point stood at 200 °C.

As to `CN1CCC(N(C[C@H]2CCCN2)S(=O)(=O)c2ccc(Nc3nccc(Nc4ccc(F)cc4)n3)cc2)CC1` (as salt: hydrochloride) [Example 124, 4-({4-[(4-Fluorophenyl)amino]pyrimidin-2-yl}amino)-N-(1-methylpiperidin-4-yl)-N-[(2R)-pyrrolidin-2-ylmethyl]benzenesulfonamide], the melting point came to 200 °C. `CN1CCC(N(CC2CCCO2)S(=O)(=O)c2ccc(Nc3nccc(Nc4ccc(F)cc4)n3)cc2)CC1` (racemic) [Example 154] gave a melting point of 189 °C. As to `CN1CCC(N(C)S(=O)(=O)c2ccc(Nc3nccc(Nc4ccc(F)cc4)n3)cc2)CC1` [Example 1, 4-[4-(4-Fluorophenylamino)pyrimidin-2-ylamino]-N-methyl-N-(1-methylpiperidin-4-yl)benzenesulfonamide], the melting point is 205 to 210 °C. Take `O=C(CNS(=O)(=O)c1ccc(Nc2nccc(Nc3ccc(F)cc3)n2)cc1)NC1CCOCC1` [Example 2, 2-{4-[4-(4-Fluorophenylamino)pyrimidin-2-ylamino]benzenesulfonylamino}-N-(tetrahydropyran-4-yl)-acetamide]: the melting point was 253 to 254 °C. `CN(C1CCN(Cc2ccccc2)CC1)S(=O)(=O)c1ccc(Nc2nccc(Nc3ccc(F)cc3)n2)cc1` [Example 3, N-(1-Benzylpiperidin-4-yl)-4-[4-(4-fluoro-phenylamino)pyrimidin-2-ylamino]-N-methylbenzene-sulfonamide] showed a melting point of 186 to 190 °C. For the molecule `CN1CCC(N(C)S(=O)(=O)c2ccc(Nc3nccc(Nc4ccc(F)cc4)n3)cc2)C1` (centres unmarked) [Example 5, 4-[4-(4-Fluorophenylamino)pyrimidin-2-yl-amino]-N-methyl-N-(1-methylpyrrolidin-3-yl)benzene-sulfonamide], the melting point was in the range of 177 to 181 °C. `CN(C1CCS(=O)(=O)C1)S(=O)(=O)c1ccc(Nc2nccc(Nc3ccc(F)cc3)n2)cc1` (centres unmarked) [Example 6, N-(1,1-Dioxotetrahydro-1λ^6-thiophen-3-yl)-4-[4-(4-fluorophenylamino)pyrimidin-2-ylamino]-N-methyl-benzenesulfonamide]: the melting point was 236 to 240 °C.

Consider `CN(C1CCN(Cc2ccccn2)CC1)S(=O)(=O)c1ccc(Nc2nccc(Nc3ccc(F)cc3)n2)cc1` [Example 9, 4-[4-(4-Fluorophenylamino)pyrimidin-2-ylamino]-N-methyl-N-(1-pyridin-2-ylmethylpiperidin-4-yl)benzenesulfonamide], for which the melting point fell in the range of 202 to 204 °C.
